According to patent US6548521B1, “Inhibitors of metazoan parasite proteases” (The Regents of the University of California, priority 1992, dated 2003):

These molecules were tested on Plasmodium falciparum clone from CDC/Indochina III (W-2) (assay: WRAIR in vitro antimalarial serial dilution assay ([3H]-hypoxanthine incorporation)). Details: not given.
Format: cell-based
Description: The Walter Reed Army Institute of Research (WRAIR) in vitro screens for intrinsic antimalarial activity are based on modifications of procedures described in the literature [Desjardins, R. E. et al. (1979) J.D. Antimicrobial Agents and Chemotherapy, 16(6):710-8]; Chulay et al. (1983) [Journal of Infectious Diseases 148(1):148-55]; Milhous, W. K. et al. (1985) [Antimicrobial Agents and Chemotherapy 27(4):525-30]. The system is directed to the assessment of the intrinsic activity against the erythrocytic asexual life cycle (blood schizontocides)]. A minimum of 10 mg of sample is generally submitted for initial testing. Two Plasmodium falciparum clones from CDC/Indochina III (W-2) and CDC/Sierra Leone I (D-6) [Oduola, A. M. et al. (1988) [Experimental Parasitology 67(2):354-60] are used for all assays. W-2 is resistant to chloroquine, quinine and pyrimethamine and susceptible to mefloquine. D-6 is resistant to mefloquine and susceptible to chloroquine, quinine and pyrimethamine.
The clones are maintained in continuous log-phase growth in RPMI-1640 medium supplemented with 6% washed human A+ erythrocytes, 25 mM Hepes, […] NaHCO3 and 10% heat inactivated A+ human plasma or albuMAX™ (lipid-rich bovine serum albumin, GIBCO, Grand Island, N.Y.). All cultures and assays are conducted at 37° C. under an atmosphere of 5% CO2 and 5% O2, with a balance of N2.
The preliminary screen uses D-6 diluted to a 0.2% parasitemia in a 1% hematocrit in folic acid free and p-aminobenzoic acid free RPMI-1640 and albuMAX™ (FF-CM). […] The compound is further diluted to a stock solution to 10 ml with FF-CM. This stock solution is kept at −70° C. until used. The clone is preexposed, in duplicate, at three concentrations (50,000 ng/ml, 5,000 ng/ml and 50 ng/ml) of the test compound for 48 hr in a 96-well microliter plate (MTP) using a Biomek® 1000 automated laboratory workstation (Beckman Instruments, Fullerton, Calif.). Each MTP contains chloroquine-containing controls to assess the relative activity of the unknown compound and to monitor the response of D-6.
After the preincubation, [^3H]-hypoxanthine is added to each well of the MTP to determine if the parasites can still replicate or repair DNA. After 66 hr of total incubation time, the MTP are frozen to lyse the erythrocytes and parasites. The parasite DNA is recovered by harvesting the lysate onto glass-fiber filters using a Mark II cell-harvester (Tomtec, Orange, Conn.). The radioactivity is counted on a 1205 Betaplate™ liquid scintillation counter (Wallac, Turku, Finland).
The serial dilution assay is conducted using the same assay conditions and stock solution of the compound used for the preliminary screen. Both the D-6 and the W-2 clones are used. The compound is diluted two-fold over 11 different concentration ranges with a starting concentration that is based on the preliminary screen. The IC50 is determined by a non-linear logistic dose response analysis (TableCurve™, Jandel Scientific, Corte Madera, Calif.). […] For each assay, the IC50 for each clone is determined against the known antimalarials chloroquine, mefloquine, artemisinin, quinine and pyrimethamine. These control values establish the unknown compound's relative parasite susceptibility profile compared to known antimalarials. IC50s can be similarly determined for drug-resistant isolates/clones from a wide variety of geographic locations.
With `O=C(/C=C/c1ccccc1O)c1ccc(O)cc1O` [Compound 21] the “antimalarial activity (in words)” value was “activity similar to that of hydrazide derivative IV44A”. In the case of `COc1ccc(C(=O)/C=C/c2ccc([N+](=O)[O-])cc2)cc1OC` [Compound 24], the “antimalarial activity (in words)” value is reported as “poor activity”. For `O=C(C=Cc1ccccc1)n1ccnc1` [Compound 48, cinnamoylimidazole, reference compound], the “antimalarial activity (in words)” value was “substantially no activity”.

Same assay, conditions: Plasmodium falciparum, Table I, formula III; W2 clone (CDC/Indochina III); * run: chloroquine 0.23 μM; † run: chloroquine 0.2-0.4 μM
`CCN(CC)CCCC(C)Nc1ccnc2cc(Cl)ccc12` (stereo not drawn) [Chloroquine, chloroquine, reference compound] gave an IC50 of 0.23 µM.

Same assay, conditions: Plasmodium falciparum, Table II, formula IV; * run: chloroquine 0.2-0.4 μM
In the case of `CCN(CC)CCCC(C)Nc1ccnc2cc(Cl)ccc12` (stereo not drawn) [Chloroquine, chloroquine, reference compound], the IC50 is reported as 0.2 to 0.4 µM.

Same assay, conditions: Plasmodium falciparum, Table III, formula V
With `CCN(CC)CCCC(C)Nc1ccnc2cc(Cl)ccc12` (stereo not drawn) [Chloroquine, chloroquine, reference compound] the IC50 was 0.2 to 0.4 µM.

Same assay, conditions: Plasmodium falciparum, read-out: WR, IC50 (μM), Table IV, formula VI
`CCN(CC)CCCC(C)Nc1ccnc2cc(Cl)ccc12` (stereo not drawn) [Chloroquine, chloroquine, reference compound] gave an IC50 of 0.23 µM.

Same assay, conditions: Plasmodium falciparum; similar tests
`CCN(CC)CCCC(C)Nc1ccnc2cc(Cl)ccc12` (stereo not drawn) [Chloroquine, chloroquine, reference compound] was tested, and the IC50 was 0.2 to 0.4 µM.

Same assay, conditions: Plasmodium falciparum; similar tests; read-out: IC50
Work on `COc1ccc(C(=O)/C=C/c2cccnc2)c(OC)c1` [Compound 44] yielded an IC50 of 3.1 µM. Work on `Cn1cc(/C=C/C(=O)c2ccc(-n3ccnc3)cc2)c2ccccc21` [Compound 56] yielded an IC50 of 20 µM.

Same assay, conditions: Table I, formula III; W2 clone (CDC/Indochina III); * run: chloroquine 0.23 μM; † run: chloroquine 0.2-0.4 μM
Molecule `CCN(CC)CCCC(C)Nc1ccnc2cc(Cl)ccc12` (stereo not drawn) [Chloroquine, chloroquine, reference compound] has an IC50 of 0.2 µM.

Same assay, conditions: Table I, formula III; W2 clone (CDC/Indochina III); * run: chloroquine 0.23 μM; † run: chloroquine 0.2-0.4 μM; read-out: IC50
`COc1ccc(C(=O)/C=C/c2cccc(Cl)c2Cl)cc1OC` [Compound 2] was tested, and the IC50 was 0.39 µM. `COc1ccc(C(=O)/C=C/c2ccc(Cl)cc2Cl)c(OC)c1` [Compound 3] was tested, and the IC50 was 0.42 µM. Molecule `COc1ccc(C(=O)/C=C/c2ccc(F)c(F)c2)c(OC)c1` [Compound 4] has an IC50 of 0.47 µM. Work on `COc1ccc(C(=O)/C=C/c2ccc(Cl)cc2)c(OC)c1` [Compound 5] yielded an IC50 of 0.63 µM. `COc1ccc(C(=O)/C=C/c2cccc(Cl)c2)c(OC)c1` [Compound 6] was tested, and the IC50 was 0.74 µM. `COc1ccc(C(=O)/C=C/c2ccc(F)cc2F)c(OC)c1` [Compound 7] showed an IC50 of 0.77 µM. `O=C(/C=C/c1cc(Cl)cc(Cl)c1)c1ccc(Cl)cc1Cl` [Compound 8] gave an IC50 of 0.9 µM. Work on `COc1ccc(C(=O)/C=C/c2ccccc2OC)c(OC)c1` [Compound 9] yielded an IC50 of 0.96 µM. `COc1ccc(C(=O)/C=C/c2cc(F)ccc2F)c(OC)c1` [Compound 10] gave an IC50 of 1.3 µM. `COc1ccc(C(=O)/C=C/c2ccc(N(C)C)cc2)c(OC)c1` [Compound 11] was tested, and the IC50 was 1.4 µM. `COc1ccc(/C=C/C(=O)c2cc(Cl)ccc2Cl)c(OC)c1` [Compound 12] showed an IC50 of 1.9 µM. With `COc1ccc(C(=O)/C=C/c2c(F)cccc2F)cc1OC` [Compound 13] the IC50 was 2 µM. For `COc1ccc(C(=O)/C=C/c2c(Cl)cccc2Cl)c(OC)c1` [Compound 14], the IC50 was 2.4 µM. In the case of `COc1ccc(/C=C/C(=O)c2ccc(Cl)c(Cl)c2)c(OC)c1` [Compound 16], the IC50 is reported as 3.2 µM. `COc1ccc(/C=C/C(=O)c2ccc(OC)cc2OC)c(OC)c1` [Compound 17] was tested, and the IC50 was 3.6 µM. `O=C(/C=C/c1ccc(Cl)cc1)c1ccc(Cl)cc1Cl` [Compound 18] was tested, and the IC50 was 3.6 µM. Molecule `O=C(/C=C/c1ccccc1)c1ccc(O)cc1O` [Compound 19] has an IC50 of 3.6 µM. With `COc1ccc(/C=C/C(=O)c2ccc(Cl)cc2Cl)c(OC)c1` [Compound 20] the IC50 was 3.8 µM. `O=C(/C=C/c1ccccc1O)c1ccc(O)cc1O` [Compound 21] gave an IC50 of 3.9 µM. Work on `COc1ccc(C(=O)/C=C/c2c(OC)cccc2OC)cc1OC` [Compound 22] yielded an IC50 of 4.2 µM. Molecule `COc1ccc(C(=O)/C=C/c2ccccc2Cl)c(OC)c1` [Compound 23] has an IC50 of 5.8 µM. For `COc1ccc(C(=O)/C=C/c2ccc([N+](=O)[O-])cc2)cc1OC` [Compound 24], the IC50 was 5.9 µM. For `COc1ccccc1/C=C/C(=O)c1ccccc1O` [Compound 25], the IC50 was 6.9 µM. In the case of `O=C(/C=C/c1ccc(O)cc1)c1ccc(O)cc1O` [Compound 26], the IC50 is reported as 7.4 µM. Molecule `COc1ccc(C(=O)/C=C/c2c(Cl)cccc2Cl)cc1OC` [Compound 27] has an IC50 of 7.9 µM. In the case of `COc1ccc(C(=O)/C=C/c2c(F)cccc2F)c(OC)c1` [Compound 28], the IC50 is reported as 8.1 µM. Work on `COc1ccc(C(=O)/C=C/c2c(OC)cccc2OC)c(OC)c1` [Compound 29] yielded an IC50 of 8.6 µM. `COc1ccc(C(=O)/C=C/c2cc(Cl)cc(Cl)c2)cc1OC` [Compound 30] showed an IC50 of 8.8 µM. For `O=C(/C=C/c1ccccc1)c1ccc(O)c(O)c1O` [Compound 31], the IC50 was 10.1 µM. Work on `COc1ccc(/C=C/C(=O)c2ccc(F)cc2F)c(OC)c1` [Compound 32] yielded an IC50 of 11.1 µM. Molecule `O=C(/C=C/c1ccc(Cl)cc1Cl)c1ccc(Cl)c(Cl)c1` [Compound 33] has an IC50 of 14.6 µM. For `O=C(/C=C/c1ccccc1O)c1ccccc1O` [Compound 34], the IC50 was 14.7 µM. In the case of `COc1ccc(C(=O)/C=C/c2ccc(F)c(F)c2)cc1OC` [Compound 35], the IC50 is reported as 16.1 µM. `COc1ccc(/C=C/C(=O)c2ccccc2O)cc1OC` [Compound 36] gave an IC50 of 16.4 µM. `COc1ccc(C(=O)/C=C/c2ccc(Cl)cc2)cc1OC` [Compound 37] gave an IC50 of 16.6 µM. `COc1ccc(C(=O)/C=C/c2ccc(Cl)cc2Cl)cc1OC` [Compound 38] showed an IC50 of 19.5 µM. With `O=C(/C=C/c1ccc(O)cc1)c1ccccc1O` [Compound 39] the IC50 was 23 µM. `O=C(/C=C/c1ccc(Cl)cc1)c1ccc(Cl)c(Cl)c1` [Compound 40] gave an IC50 of 31.7 µM. Molecule `O=C(/C=C/c1cccc(O)c1)c1ccccc1O` [Compound 41] has an IC50 of 77 µM. For `COc1ccc(C(=O)/C=C/c2ccc(F)cc2F)cc1OC` [Compound 42], the IC50 was 109 µM. In the case of `COc1ccc(C(=O)/C=C/c2cc(Cl)cc(Cl)c2)c(OC)c1` [Compound 43], the IC50 is reported as > 148 µM.

Same assay, conditions: Table II, formula IV; * run: chloroquine 0.2-0.4 μM
`CCN(CC)CCCC(C)Nc1ccnc2cc(Cl)ccc12` (stereo not drawn) [Chloroquine, chloroquine, reference compound] was tested, and the IC50 was 0.2 µM.

Same assay, conditions: Table III, formula V; read-out: IC50
`O=C(/C=C/c1ccc(Cl)cc1Cl)c1ccc(-n2ccnc2)cc1` [Compound 49] gave an IC50 of 0.72 µM. Work on `O=C(/C=C/c1cc(Cl)cc(Cl)c1)c1ccc(-n2ccnc2)cc1` [Compound 50] yielded an IC50 of 0.91 µM. `O=C(/C=C/c1cccc(Cl)c1Cl)c1ccc(-n2ccnc2)cc1` [Compound 51] showed an IC50 of 1.8 µM. Molecule `O=C(/C=C/c1c(Cl)cccc1Cl)c1ccc(-n2ccnc2)cc1` [Compound 52] has an IC50 of 1.9 µM. In the case of `O=C(/C=C/c1ccc(F)cc1F)c1ccc(-n2ccnc2)cc1` [Compound 53], the IC50 is reported as 3.2 µM. `O=C(/C=C/c1c(F)cccc1F)c1ccc(-n2ccnc2)cc1` [Compound 54] showed an IC50 of 7.8 µM. Molecule `CN(C)c1ccc(/C=C/C(=O)c2ccc(-n3ccnc3)cc2)cc1` [Compound 55] has an IC50 of 18 µM.

Same assay, conditions: read-out: IC50
`COc1ccc(/C=C/C(=O)c2ccccn2)c(OC)c1` [Compound 45] was tested, and the IC50 was 4.6 µM. Work on `COc1ccc(/C=C/C(=O)c2cccnc2)c(OC)c1` [Compound 46] yielded an IC50 of 7.2 µM. For `O=C(/C=C/c1ccc(Cl)c([N+](=O)[O-])c1)c1ccccn1` [Compound 47], the IC50 was 8.2 µM. For `O=C(C=Cc1ccccc1)n1ccnc1` [Compound 48, cinnamoylimidazole, reference compound], the IC50 was > 253 µM.

Same assay, conditions: similar tests; read-out: IC50
For `COc1ccc(C(=O)/C=C/c2cccc(Cl)c2Cl)c(OC)c1` [Compound 1], the IC50 was 0.38 µM. `COc1ccc(C(=O)/C=C/c2cccc(F)c2F)c(OC)c1` [Compound 15] was tested, and the IC50 was 2.8 µM.
